This experiment concerns the target T1, hGRK-2 (Homo sapiens, UniProt P25098).
T1 sequence (P25098 1-689): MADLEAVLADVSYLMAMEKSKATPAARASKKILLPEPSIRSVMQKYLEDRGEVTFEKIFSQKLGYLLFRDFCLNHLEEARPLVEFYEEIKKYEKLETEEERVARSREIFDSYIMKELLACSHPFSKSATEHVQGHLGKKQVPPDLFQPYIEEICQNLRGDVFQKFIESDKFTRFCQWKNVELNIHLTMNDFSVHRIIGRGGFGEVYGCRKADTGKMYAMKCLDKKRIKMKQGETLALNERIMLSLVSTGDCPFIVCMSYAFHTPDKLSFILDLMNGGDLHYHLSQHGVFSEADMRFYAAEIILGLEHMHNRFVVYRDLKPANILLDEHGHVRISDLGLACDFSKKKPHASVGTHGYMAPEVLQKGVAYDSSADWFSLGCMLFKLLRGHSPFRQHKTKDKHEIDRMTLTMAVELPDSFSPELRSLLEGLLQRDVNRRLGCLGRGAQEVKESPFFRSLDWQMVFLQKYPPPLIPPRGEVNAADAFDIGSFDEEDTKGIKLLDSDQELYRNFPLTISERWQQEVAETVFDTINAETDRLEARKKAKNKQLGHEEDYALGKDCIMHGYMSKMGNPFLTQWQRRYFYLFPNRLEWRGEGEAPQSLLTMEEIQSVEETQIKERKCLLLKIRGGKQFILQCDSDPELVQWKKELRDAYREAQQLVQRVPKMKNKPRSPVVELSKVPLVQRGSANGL
As to the kind of experiment: luciferase-based (Kinase-Glo) biochemical kinase inhibition assay, hGRK-2. The conditions noted are these: luciferase assay, casein substrate, 10 μM ATP; read-out: GRK-2 inhibition, Ki class. On the procedure:
The inhibition of G-protein-coupled receptor kinases including hGRK-2 was determined for the hydrazide compounds using a biochemical assay. The inhibition of GRK-3, GRK-5 and GRK-6 was also determined using the same assay for some of the hydrazide derivatives.
The protein kinase inhibition was determined using a biochemical assay utilizing the light emission of a luciferase reaction. The luciferase-based assay operates on the following reaction principles: [drawing 10]
An inhibitor of GRK-2 will increase in the amount of ATP in solution, as shown. Thus, an inhibitor of GRK-2 will drive the luciferase reaction to the right, resulting in more light emitted. The amount of light emitted is proportional to the inhibition resulting from the GRK-2 inhibitor. The luciferase-based assay was also used to test some of the hydrazides for the inhibition properties towards other kinases.
The test procedure was as follows:
• 50 mM HEPES, pH 7.5 • 10 mM MgCl2 • 100 μM activated sodium orthovanadate • 0.01% CHAPS • 0.1% BSA • 1 mM DTT (added fresh daily) 10× Assay Buffer Stock: • 500 mM HEPES, pH 7.5 • 100 mM MgCl2 • 1 mM activated sodium orthovanadate • 0.1% CHAPS • 1% BSA (leave out for 10× compound dilution buffer) Final Assay Conditions: • 50 μM test compound • 20 μM casein • 10 μM ATP • 50 nM hGRK2 • 4.5% DMSO • 90-120 minute incubation
Stopped by addition of 30 μl 3×-diluted Kinase-Glo reagent containing 0.01% trypan blue. Counted on FUSION plate reader.
Compound Dilution and Transfer
Prepare sufficient buffer containing 40% DMSO to add 20 μl/well to the number of plates being assayed. This buffer should not contain BSA because it will precipitate with addition of 40% DMSO. (EXAMPLE: To make 3000 ml compound dilution buffer: 1200 ml DMSO, 180 ml 10× compound dilution buffer, 1615 ml ultrapure water, 3 ml 1M DTT.).
Using Multidrop, add 20 μl of compound dilution buffer to all wells of the 384-well daughter plate (add 1 μl DMSO to control wells). This will result in a daughter plate which contains 21 μl of ˜500 μM test compound.
Using the PlateTrak, transfer 5 μl of the test compounds to a 384-well, non-binding, white microtiter plate.
Prepare sufficient volume of buffer (with BSA and 1 mM DTT) containing 125 nM GRK2 and 25 μM ATP. (Example: To 219 ml of buffer was added 550 μl 10 mM ATP and 350 μl 79 μM GRK2).
Using Multidrop, add 20 μl of GRK2/ATP mixture to all wells of the microtiter plate.
Prepare sufficient volume of buffer (with BSA and 1 mM DTT) containing 40 μM casein. (EXAMPLE: To 211 ml buffer add 8.8 ml 1 mM casein)
Using Multidrop, add 25 μl to columns 1 through 23 of the microtiter plate. Add 25 μl of complete buffer to column 24 (blanks).
Mix reaction gently by tapping (Multidrop addition of casein does a decent job of mixing), stack plates and incubate at room temperature for between 90 and 120 minutes. Assay progression can be tracked in a separate plate if desired. Target 20-30% ATP consumption. Try to avoid exceeding 40% consumption as kinetics might become non-linear due to substrate (ATP) depletion.
Addition of Kinase-Glo Reagents
The Kinase-Glo reagent can be diluted 3-fold with no loss of data quality in this assay. Additionally, since the library contains many colored compounds which will quench the light emitted from the well resulting in a false negative (kinase inhibitors result in less ATP consumption thus more light emitted), the entire reaction is subject to intentional quench to override this effect. This intentional quench is accomplished by the addition of 0.01% trypan blue to the Kinase-Glo reagents. (EXAMPLE: 100 ml 1× Kinase-Glo reagents (prepared according to product insert), 200 ml assay buffer, 7.5 ml 0.4% trypan blue.
Using Multidrop, add 30 μl to all wells of the assay plate.
Count on FUSION plate reader in luminescence mode.
(In Kinase-Glo more light means more ATP remaining.)

A value given as a limit tells only on which side of the number the result lay.

By Ki is commonly meant a dissociation constant, usually derived from enzyme kinetics or from competition with a known ligand. In the case of `O=C(CNc1cccc(Oc2ccc(OC(F)(F)F)cc2)c1)NN=Cc1ccncc1` (mixture of isomers) [Example 77, [3-(4-Trifluoromethoxy-phenoxy)-phenylamino]-acetic acid [1-pyridin-4-yl-meth-(E/Z)-ylidene]-hydrazide], the Ki fell in the range of 100 to 1000 nM.
The value for `COc1ccc(Oc2cccc(NCC(=O)NN=Cc3ccncc3)c2)cc1` (mixture of isomers) [Example 81] was 10 to 100 nM; that for `O=C(CNc1ccccc1)N/N=C/c1c(Cl)cncc1Cl` [Example 2, Phenylamino-acetic acid [1-(3,5-dichloro-pyridin-4-yl)-meth-(E)-ylidene]-hydrazide] was 100 to 1000 nM; that for `N#Cc1cccc(NCC(=O)N/N=C/c2c(Cl)cncc2Cl)c1` [Example 3, (3-Cyano-phenylamino)-acetic acid [1-(3,5-dichloro-pyridin-4-yl)-meth-(E)-ylidene]-hydrazide] was 1000 to 10000 nM.
Take `O=C(CNc1cccc(Br)c1)N/N=C/c1c(Cl)cncc1Cl` [Example 6, (3-Bromo-phenylamino)-acetic acid [1-(3,5-dichloro-pyridin-4-yl)-meth-(E)-ylidene]-hydrazide]: the Ki is 1000 to 10000 nM.
Regarding `O=C(CNc1cccc([N+](=O)[O-])c1)N/N=C/c1c(Cl)cncc1Cl` [Example 7, (3-Nitro-phenylamino)-acetic acid [1-(3,5-dichloro-pyridin-4-yl)-meth-(E)-ylidene]-hydrazide], the Ki lay in the range of 1000 to 10000 nM.
Then `Cc1cccc(NCC(=O)N/N=C/c2c(Cl)cncc2Cl)c1` [Example 8, m-Tolylamino-acetic acid [1-(3,5-dichloro-pyridin-4-yl)-meth-(E)-ylidene]-hydrazide], with 1000 to 10000 nM; and `O=C(CNc1cccc(I)c1)N/N=C/c1c(Cl)cncc1Cl` [Example 11, (3-Iodo-phenylamino)-acetic acid [1-(3,5-dichloro-pyridin-4-yl)-meth-(E)-ylidene]-hydrazide], with 1000 to 10000 nM.
Regarding `O=C(CNc1cccc(C(F)(F)F)c1)N/N=C/c1c(Cl)cncc1Cl` [Example 12, (3-Trifluoromethyl-phenylamino)-acetic acid [1-(3,5-dichloro-pyridin-4-yl)-meth-(E)-ylidene]-hydrazide], the Ki was more than 10000 nM.
The value for `O=C(CNc1ccc(F)cc1)N/N=C/c1c(Cl)cncc1Cl` [Example 14, (4-Fluoro-phenylamino)-acetic acid [1-(3,5-dichloro-pyridin-4-yl)-meth-(E)-ylidene]-hydrazide] was 1000 to 10000 nM.
Turning to `CC(C)c1cccc(NCC(=O)N/N=C/c2c(Cl)cncc2Cl)c1` [Example 16, (3-Isopropyl-phenylamino)-acetic acid [1-(3,5-dichloro-pyridin-4-yl)-meth-(E)-ylidene]-hydrazide], the Ki is more than 10000 nM.
In the case of `Cc1ccc(NCC(=O)N/N=C/c2c(Cl)cncc2Cl)cc1` [Example 17, p-Tolylamino-acetic acid [1-(3,5-dichloro-pyridin-4-yl)-meth-(E)-ylidene]-hydrazide], the Ki was in the range of 1000 to 10000 nM.
Then `O=C(CNc1ccc(Cl)cc1)N/N=C/c1c(Cl)cncc1Cl` [Example 18, (4-Chloro-phenylamino)-acetic acid [1-(3,5-dichloro-pyridin-4-yl)-meth-(E)-ylidene]-hydrazide], with 1000 to 10000 nM.
Take `CC(C)Oc1cccc(NCC(=O)N/N=C/c2c(Cl)cncc2Cl)c1` [Example 19, (3-Isopropoxy-phenylamino)-acetic acid [1-(3,5-dichloro-pyridin-4-yl)-meth-(E)-ylidene]-hydrazide]: the Ki lay within 1000 to 10000 nM.
The value for `CS(=O)(=O)c1cccc(NCC(=O)N/N=C/c2c(Cl)cncc2Cl)c1` [Example 23, (3-Methanesulfonyl-phenylamino)-acetic acid [1-(3,5-dichloro-pyridin-4-yl)-meth-(E)-ylidene]-hydrazide] was 1000 to 10000 nM.
Then `CS(=O)(=O)Nc1cccc(NCC(=O)N/N=C/c2c(Cl)cncc2Cl)c1` [Example 24], with 1000 to 10000 nM.
Then `Cc1ccccc1NCC(=O)N/N=C/c1c(Cl)cncc1Cl` [Example 25, o-Tolylamino-acetic acid [1-(3,5-dichloro-pyridin-4-yl)-meth-(E)-ylidene]-hydrazide], with 1000 to 10000 nM; and `CCc1ccccc1NCC(=O)N/N=C/c1c(Cl)cncc1Cl` [Example 26, (2-Ethyl-phenylamino)-acetic acid [1-(3,5-dichloro-pyridin-4-yl)-ylidene]-hydrazide], with 1000 to 10000 nM.
As for `CC(=O)Nc1cccc(NCC(=O)N/N=C/c2c(Cl)cncc2Cl)c1` [Example 27, N-(3-{[1-(3,5-Dichloro-pyridin-4-yl)-meth-(E)-ylidene-hydrazinocarbonylmethyl]-amino}-phenyl)-acetamide], the Ki fell in the range of 1000 to 10000 nM.
The value for `O=C(CNc1ccccc1Br)N/N=C/c1c(Cl)cncc1Cl` [Example 29, (2-Bromo-phenylamino)-acetic acid [1-(3,5-dichloro-pyridin-4-yl)-meth-(E)-ylidene]-hydrazide] was more than 10000 nM; that for `Cc1ccccc1Oc1ccccc1NCC(=O)N/N=C/c1c(Cl)cncc1Cl` [Example 30, (^2-o-Tolyloxy-phenylamino)-acetic acid [1-(3,5-dichloro-pyridin-4-yl)-meth-(E)-ylidene]-hydrazide] was more than 10000 nM.
The value for `O=C(CNc1cccc(-n2cncn2)c1)N/N=C/c1c(Cl)cncc1Cl` [Example 31, (3-[1,2,4]Triazol-1-yl-phenylamino)-acetic acid [1-(3,5-dichloro-pyridin-4-yl)-meth-(E)-ylidene]-hydrazide] was more than 10000 nM.
Then `O=C(CNc1cccc(OCCN2CCOCC2)c1)N/N=C/c1c(Cl)cncc1Cl` [Example 32, [3-(2-Morpholin-4-yl-ethoxy)-phenylamino]-acetic acid [1-(3,5-dichloro-pyridin-4-yl)-meth-(E)-ylidene]-hydrazide], with 1000 to 10000 nM.
On to `O=C(CNc1cccc(C(=O)NCCN2CCOCC2)c1)N/N=C/c1c(Cl)cncc1Cl` [Example 33, 3-{[1-(3,5-Dichloro-pyridin-4-yl)-meth-(E)-ylidene-hydrazinocarbonylmethyl]-amino}-N-(2-morpholin-4-yl-ethyl)-benzamide], for which the Ki is 10 to 100 nM.
Then `O=C(CNc1cccc(-n2cccn2)c1)N/N=C/c1c(Cl)cncc1Cl` [Example 34], with more than 10000 nM.

Values taken from patent US20070135499A1 (Aerie Pharmaceuticals, Inc., priority 2005, published 2007).
